pIC50: −log10 of the molar value. In brackets after ≈: the same amount, converted by molar mass. Read-outs that look alike come from different tables or passages of the source.
Legend:
[1] = test system: S. aureus (SA38); conditions: cited from earlier work
[2] = test system: E. coli (K12); conditions: cited from earlier work
[3] = test system: P. aeruginosa (PA01); conditions: cited from earlier work
[4] = test system: Gram-negative bacteria; parameters: method as in doi:10.1002/slct.201700336, PMID 28203673; conditions: previously reported ref 43, 44; cited from earlier work
[5] = test system: S. aureus; test: Time-kill kinetic / cell viability count assay; type: cell-based, Staphylococcus aureus
Description: The number of viable cells was confirmed by serially diluting aliquots of bacteria in D/E neutralizing broth (Remel, Lenexa, KS, USA) and plating onto Tryptic Soy Agar (Oxoid, Basingstoke, UK) containing phosphatidylcholine (0.7 g/L) and Tween 80 (5 mL/L). The plates were incubated at 37 °C overnight and numbers of live bacteria were enumerated and expressed as CFU/mL. The experiment was performed in triplicate.

[6] = Tethered bilayer lipid membranes (tBLMs) assay, zwitterionic membrane; conditions: for shift in membrane conductance: zwitterionic POPC tBLMs, concentrations as low as 100 nM; for changes of membrane conduction: zwitterionic membrane, higher concentrations (1–100 μM); for membrane capacitance: zwitterionic tBLMs, saturating concentrations
Description: (§1) Changes in membrane conduction and capacitance were measured using tethered bilayer lipid membranes (tBLMs) in association with AC electrical impedance spectroscopy techniques. Sparsely tethered tBLMs were prepared using a zwitterionic 1-palmitoyl-2-oleoyl-glycero-3-phosphocholine (POPC) (Avanti Lipids, USA) or a mixture of 30% palmitoyl-oleoyl-phosphatidylglycerol (POPG) (Avanti Lipids, USA) lipids with 70% POPC in order to create a negatively charged tBLM [66, 67]. To do this, gold-patterned polycarbonate slides were coated with tethered benzyl-disulfide (tetra-ethyleneglycol) n = 2 C20-phytanyl tethers:benzyl-disulfide-tetra-ethyleneglycol-OH spacers in the ratio of 1:10 (SDx Tethered Membranes Pty Ltd., Australia). A 3 mM solution of a mobile lipid phase POPC, or a 3 mM solution of mobile phase POPC/POPG (70:30), (Avanti Lipids, USA) in 100% ethanol was then incubated with the tethering chemistries. Lipids were left to incubate with the tethering chemistries for 2 min before being washed with 3 × […] of phosphate-buffered saline (PBS). Prior to the addition of the compounds, membrane stability was confirmed by 5 × 100 µL washes of the PBS vehicle. AC electrical impedance spectrometry (EIS) was then used to monitor any changes in membrane impedances as a result of adding the test compounds in increasing concentrations.
(§2) For EIS measures, a 50 mV peak-to-peak AC excitation from 0.1 to 2000 Hz with four steps per decade were recorded using a TethaPod™ operated with TethaQuick™ software (SDx Tethered Membranes Pty Ltd., Australia). The data were fitted to an equivalent circuit consisting of a Constant Phase Element (CPE), to represent the imperfect capacitance of the gold tethering electrode, in series with a Resistor/Capacitor network to represent the lipid bilayer membrane. Fitting of the phase and impedance data to the equivalent circuit was completed with a proprietary adaptation of a Lev Mar fitting routine. To account for variations in basal membrane conditions, data are normalised to a baseline conduction and capacitance values directly before the addition of each compound.

[7] = test system: established S. aureus biofilms; test: Biofilm disruption assay (crystal violet staining), S. aureus; type: cell-based, Staphylococcus aureus; conditions: 24 h treatment
Description: (§3) Bacterial cultures (S. aureus and E. coli) were grown in Muller Hinton broth (MHB; Oxoid, Basingstoke, UK) media overnight at 37 °C with shaking at 120 rpm. Cultures were diluted (1:20) in MHB medium and 200 µL aliquots were dispensed to wells in a flat bottom 96-well plate (Costar; Sigma-Aldrich, St Louis, MO, USA). Biofilm was then grown in the 96-well plate at 37 °C overnight. After that, loosely bound cells were washed away with 1x phosphate-buffered saline (PBS) and cultures were then supplemented with different concentrations of test compounds dissolved in DMSO and incubated for a further 24 h with shaking at 120 rpm. Biofilms adhered on the plate substratum were quantified using crystal violet staining as described previously. The experiment was performed in triplicate.

[8] = test system: MRC-5 normal human lung fibroblasts; test: MTT toxicity assay; type: cell-based; conditions: Homo sapiens, MRC5, 72 h, 72 h drug incubation, read-out: IC50 against MRC-5 normal human lung fibroblasts
Description: The toxicity of the compounds was measured using an MTT (3-(4,5-dimethylthiazol-2-yl)-2,5-diphenyltetrazolium bromide) (Sigma Aldrich, St Louis, MO, USA) colorimetric assay against normal human lung fibroblasts MRC-5 cells. The cells were cultured in minimal essential medium (MEM; Sigma Aldrich, St Louis, MO, USA) containing 10% foetal bovine serum (FBS). The cells were maintained at 37 °C in 5% CO2 as an adherent monolayer and was passaged upon reaching confluence by standard cell culture techniques. MRC-5 cells were seeded at 5000 cells/well in 96-well plates to ensure full confluence (quiescence) and left overnight to adhere to the plate wells. The adherent cells were treated with 1–500 µM of compounds by dissolving in DMSO and serially diluting with media. The final concentration of DMSO was 0.5% (v/v). After 72 h drug incubation, […] stock MTT solution (5 mg/mL) was added and the cells were incubated for another 3.5–4 h. MTT solution-containing media was carefully aspirated without displacing the purple crystals from the bottom and […] acid-isopropanol was added to all wells and mixed slowly by shaking with an orbital shaker to dissolve the dark blue crystals. The metabolic activity was detected by spectrophotometric analysis by assessing the read absorbance (590/620 nm) on an EnSight plate reader (PerkinElmer, Waltham, MA, USA) and cell viability was expressed as a percentage of untreated control cells. The determination of IC50 values was performed using GraphPad Prism 6 (GraphPad, San Diego, CA, USA). Each experiment was performed in triplicate and was repeated in three independent experiments.

[9] = test system: E. coli (K12); test: Minimum inhibitory concentration (MIC) assay against E. coli; type: cell-based; conditions: Escherichia coli
Description: (§4) The antimicrobial activity of the compounds was evaluated by MIC assay using the procedure described by Clinical and Laboratory Standards Institute (CLSI). A single colony of bacteria was cultured overnight in trypticase soy broth (TSB; Oxoid, Basingstoke, UK) at 37 °C with shaking. The resulting bacterial culture was collected by centrifugation and resuspended in TSB twice. The optical density (OD) of the resulting culture was adjusted to OD660 = 0.1 in TSB (which is equivalent to 10^8 colony forming unit (CFU)/mL bacteria). It was further diluted to 10^6 CFU/mL in TSB. 100 µL of the bacterial solution was then added to wells of a 96-well plate (Costar; Sigma-Aldrich, St Louis, MO, USA) containing 100 µL serially diluted peptide mimic, with final concentration ranging from 1 to 250 µM. Wells with bacteria but no compound were used as negative control while wells with only media were set as blank. The plates were then wrapped with parafilm to prevent evaporation and incubated with shaking at 120 rpm at 37 °C for 18–24 h, and the data were recorded by measuring the OD value at 660 nm using a FLUOstar Omega (BMG Labtech, Mornington, Victoria, Australia) microplate reader. […] Each experiment was performed in triplicate and was repeated in three independent experiments.

[10] = test system: cytoplasmic membrane of S. aureus; test: Cytoplasmic membrane permeability (diSC3-5 dye release) assay; type: cell-based, Staphylococcus aureus; conditions: 1× and 2× MIC
Description: Bacterial cytoplasmic membrane permeability was determined using membrane potential-sensitive dye diSC3–5 (3,3′-dipropylthiadicarbocyanine iodide), which penetrates inside bacterial cells depending on the membrane potential gradient of the cytoplasmic membrane. The procedure of this assay follows the method previously described by Wu et al. with slight modifications. Bacteria were grown in MHB to mid-log phase by incubating with shaking at 37 °C for […]. Following incubation, bacteria were washed with 5 mM HEPES containing 20 mM glucose at pH 7.2 and resuspended in the same buffer to an OD600 0.05–0.06 (yielding a final concentration of 10^7 CFU/mL). The dye diSC3–5 was added at 4 μM to the bacterial suspension. The suspensions were incubated at room temperature for 1 h in darkness for maximum dye take-up by the bacterial cells. 100 mM KCl was then added to balance the K^+ outside and inside the bacterial cell. 100 μL of bacterial suspension was added in a 96-well microtiter plate and with equal volume of antimicrobial compounds. DMSO (10%) was set as a positive control while dye and only bacterial cells were set as negative control. Fluorescence due to release of dye was measured with a luminescence spectrophotometer at 3 min intervals at an excitation wavelength of 621 nm and an emission wavelength of 670 nm.

[11] = Tethered bilayer lipid membranes (tBLMs) assay, negatively charged membrane; conditions: for changes in membrane conductance: 30% POPG membranes, concentrations <1 μM; for changes of membrane conduction: negatively charged membranes, higher concentrations (1–100 μM), compared to zwitterionic; for membrane capacitance: negatively charged tBLMs, saturating concentrations
Description: as §1, §2

[12] = test system: preformed E. coli biofilm; test: Biofilm disruption assay (crystal violet staining), E. coli; type: cell-based, Escherichia coli; conditions: 4× MIC (64 μM), 24 h treatment
Description: as §3

[13] = test system: S. aureus (SA38); test: Minimum inhibitory concentration (MIC) assay against S. aureus; type: cell-based, Staphylococcus aureus; conditions: Staphylococcus aureus
Description: as §4

[14] = test system: P. aeruginosa (PA01); test: Minimum inhibitory concentration (MIC) assay against P. aeruginosa; type: cell-based; conditions: Pseudomonas aeruginosa
Description: as §4

[15] = no antibacterial activity at the highest concentration tested (250 μM) ref 43
[16] = any tested concentration (1×, 2× and 4× MIC)
[17] = previously reported values ref 51

## CCCCCCCCS(=O)(=O)Nc1ccccc1C(=O)C(=O)NCCC[N+](C)(C)C [Compound 4a]
[1]; previously synthesised N-sulfonylphenylglyoxamide iodide salts ref 43
  MIC against S. aureus: 250 µM
[2]; [15]
  MIC against E. coli: > 250 µM
[3]; [15]
  MIC against P. aeruginosa: > 250 µM

## N=C(N)NCCCNC(=O)C(=O)c1cc(Br)ccc1NC(=O)c1ccc2ccccc2c1 [Compound 5]
[1]; previously reported ref 44
  MIC against S. aureus: 12 µM (≈ 5.96 µg/mL)
[4]
  antibacterial activity against Gram-negative bacteria: no antibacterial activity

## CCCCCCCCS(=O)(=O)Nc1ccc(-c2ccc(Cl)cc2)cc1C(=O)C(=O)NCCC[N+](C)(C)C.[I-] [Compound 15c, 3-(2-(4’-Chloro-4-(octylsulfonamido)-[1,1’-biphenyl]-3-yl)-2-oxoacetamido)-N,N,N-trimethylpropan-1-aminium iodide]
[5]; 1× MIC
  reduction in bacterial numbers: 1 log
[5]; 2× MIC
  reduction in bacterial numbers: 2 log
[6]
  shift in membrane conductance: 2.5 ×
  changes of membrane conduction: more pronounced
  membrane capacitance: large increase
[7]; 4× MIC (32 μM)
  disruption of preformed S. aureus biofilms: 35%
[8]
  pIC50: 4.02
[9]
  MIC: 16 µM
[10]
  increase in diSC3-5 fluorescence intensity (cytoplasmic membrane disruption): largest increase in fluorescence intensity
[11]
  changes in membrane conductance: notably absent
  changes of membrane conduction: lower
  membrane capacitance: large increase
[12]
  disruption of preformed E. coli biofilm: insignificant amount
[13]
  MIC: 8 µM
[14]
  MIC: 63 µM

## CCCCCCCCS(=O)(=O)Nc1ccc(-c2ccc3ccccc3c2)cc1C(=O)C(=O)NCCC[N+](C)(C)C.[I-] [Compound 15d, N,N,N-Trimethyl-3-(2-(5-(naphthalen-2-yl)-2-(octylsulfonamido)phenyl)-2-oxoacetamido)propan-1-aminium iodide]
[6]
  shift in membrane conductance: 2.5 ×
  changes of membrane conduction: more pronounced
  membrane capacitance: large increase
[7]; [16]
  disruption of preformed S. aureus biofilms: failed to disrupt any
[8]
  pIC50: 3.95
[9]
  MIC: 63 µM
[11]
  changes in membrane conductance: notably absent
  changes of membrane conduction: lower
  membrane capacitance: large increase
[13]
  MIC: 8 µM
[14]
  MIC: 250 µM

## CCCCCCCCS(=O)(=O)Nc1ccc(-c2ccccc2)cc1C(=O)C(=O)NCCCNC(=N)N.Cl [Compound 22a, N-(3-Guanidinopropyl)-2-(4-(octylsulfonamido)-[1,1’-biphenyl]-3-yl)-2-oxoacetamide hydrochloride]
[6]
  changes of membrane conduction: more pronounced
[7]; [16]
  disruption of preformed S. aureus biofilms: failed to disrupt any
[8]
  pIC50: 4.12
[9]
  MIC: 63 µM
[11]
  changes of membrane conduction: lower
[13]
  MIC: 8 µM
[14]
  MIC: 63 µM

## CCCCCCCCS(=O)(=O)Nc1ccc(-c2ccc(F)cc2)cc1C(=O)C(=O)NCCCNC(=N)N.Cl [Compound 22b, 2-(4’-Fluoro-4-(octylsulfonamido)-[1,1’-biphenyl]-3-yl)-N-(3-guanidinopropyl)-2-oxoacetamide hydrochloride]
[5]; 1× and 2× MIC
  reduction in bacterial numbers: less than 1 log
[7]; 4× MIC (32 μM)
  disruption of preformed S. aureus biofilms: 39%
[8]
  pIC50: 4.12
[9]
  MIC: 16 µM
[10]
  increase in diSC3-5 fluorescence intensity (cytoplasmic membrane disruption): modest
[12]
  disruption of preformed E. coli biofilm: insignificant amount
[13]
  MIC: 8 µM
[14]
  MIC: 63 µM

## CCCCCCCCS(=O)(=O)Nc1ccc(-c2ccc3ccccc3c2)cc1C(=O)C(=O)NCCCNC(=N)N.Cl [Compound 22d, N-(3-Guanidinopropyl)-2-(5-(naphthalen-2-yl)-2-(octylsulfonamido)phenyl)-2-oxoacetamide hydrochloride]
[5]; 1× and 2× MIC
  reduction in bacterial numbers: less than 1 log
[7]; 4× MIC (32 μM)
  disruption of preformed S. aureus biofilms: 50%
[8]
  pIC50: 4.31
[9]
  MIC: > 250 µM
[10]
  increase in diSC3-5 fluorescence intensity (cytoplasmic membrane disruption): modest
[13]
  MIC: 8 µM
[14]
  MIC: > 250 µM

## pexiganan [pexiganan (MSI-78)]
[1]; [17]
  MIC S. aureus: 3.2 to 6.5 µM
[2]; [17]
  MIC E. coli: 3.2 to 6.5 µM
[3]; [17]
  MIC P. aeruginosa: 3.2 to 6.5 µM

Reference: publication PMC7555970, “Design, Synthesis and Biological Evaluation of Biphenylglyoxamide-Based Small Molecular Antimicrobial Peptide Mimics as Antibacterial Agents” (International Journal of Molecular Sciences, 2020)
